Measured values: patent US11208387B2, “Macrocyclic broad spectrum antibiotics” (Genentech, Inc., priority 2019, dated 2021)
Values after ≈ are worked out from the molar mass of the structure shown. Like-named read-outs stand apart in the source and are kept apart here.

How the values were obtained:
Experiment in all cases: Serum MIC, broth micro-dilution
Format in all cases: cell-based
[1] = test system: Escherichia coli strain ATCC 25922; settings: read-out: E. coli 25922 Serum MIC
How it was run: (§1)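 CLSI broth micro-dilution MIC run in 50% v/v cation-adjusted Mueller Hinton II broth plus 50% v/v mouse serum. Compounds were serially 2-fold diluted (10 concentrations) from a top concentration of 64, 4, 0.5 or 0.13 μg/mL; inoculum at final OD600 0.0005, incubated 35° C for 22 hours.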

[2] = test system: Acinetobacter baumannii ATCC 17978
How it was run: as §1

[3] = test system: Pseudomonas aeruginosa PA01; settings: for MIC: Pseudomonas aeruginosa, read-out: P. aeruginosa 01 Serum MIC
How it was run: as §1

[4] = test system: Klebsiella pneumoniae ATCC 700603
How it was run: as §1

[5] = Escherichia coli, ATCC25922, 50% v/v mouse serum in Mueller Hinton II cation adjusted Broth, 35° C., 22 hours, Table 4
[6] = Acinetobacter baumannii, ATCC17978, 50% v/v mouse serum in Mueller Hinton II cation adjusted Broth, 35° C., 22 hours, Table 4, read-out: A. baumanii 17978 Serum MIC
[7] = Acinetobacter baumannii, ATCC17978, 50% v/v mouse serum in Mueller Hinton II cation adjusted Broth, 35° C., 22 hours, Table 5, read-out: Acinetobacter baumanii 17978 Serum MIC
[8] = PA01, 50% v/v mouse serum in Mueller Hinton II cation adjusted Broth, 35° C., 22 hours, Table 4
[9] = Klebsiella pneumoniae, ATCC700603, 50% v/v mouse serum in Mueller Hinton II cation adjusted Broth, 35° C., 22 hours, Table 4, read-out: K pneumoniae 700603 Serum MIC
[10] = Escherichia coli, ATCC25922, 50% v/v mouse serum, compounds of Table 1, Table 7
[11] = Acinetobacter baumannii, ATCC17978, 50% v/v mouse serum, compounds of Table 1, Table 7, read-out: A. baumanii 17978 Serum MIC
[12] = PA01, 50% v/v mouse serum, compounds of Table 1, Table 7
[13] = Klebsiella pneumoniae, ATCC700603, 50% v/v mouse serum, compounds of Table 1, Table 7, read-out: K. pneumoniae 700603 Serum MIC
[14] = 50% v/v mouse serum in Mueller Hinton II cation adjusted Broth, 35° C., 22 hours, Table 4

Structure (SMILES)	MIC [1, 5]	MIC [2, 6]	MIC [2, 7]	MIC [3, 8]	MIC [4, 9]	also measured
CCC(C)(C)c1ccc(-c2nc(C)c(C(=O)N[C@@H](CNS(N)(=O)=O)C(=O)N(C)[C@@H]3C(=O)N[C@@H](C)C(=O)N[C@H](C(=O)O)Cc4ccc(OC[C@H](O)CN)c(c4)-c4cc3cc(OC[C@H](O)CN)c4O)c(N)n2)c(F)c1 [Example 33, (8S,11S,14S)-14-[[(2S)-2-[[4-amino-2-[4-(1,1-dimethyl-propyl)-2-fluoro-phenyl]-6-methyl-pyrimidine-5-carbonyl]amino]-3-(sulfamoylamino)-propanoyl]-methyl-amino]-3,17-bis[(2R)-3-amino-2-hydroxy-propoxy]-18-hydroxy-11-methyl-10,13-dioxo-9,12-diazatricyclo-[13.3.1.12,6]icosa-1(18),2(20),3,5,15(19), 16-hexaene-8-carboxylic acid]	1 µM (≈ 1.04 µg/mL)	48 µM (≈ 49.9 µg/mL)	48 µM (≈ 49.9 µg/mL)	8 µM (≈ 8.32 µg/mL)	1 µM (≈ 1.04 µg/mL)	–
Cc1nc(-c2ccc(C(C)(C)C)cc2O)cc(CN)c1C(=O)N[C@@H](CNS(N)(=O)=O)C(=O)N(C)[C@@H]1C(=O)N[C@@H](C)C(=O)N[C@H](C(=O)O)Cc2ccc(OC[C@H](O)CN)c(c2)-c2cc1cc(OC[C@H](O)CN)c2O [Example 65, (8S,11S,14S)-3,17-bis[(2R)-3-amino-2-hydroxy-propoxy]-14-[[(2S)-2-[[4-(aminomethyl)-6-(4-tert-butyl-2-hydroxy-phenyl)-2-methyl-pyridine-3-carbonyl]-amino]-3-(sulfamoyl-amino)propanoyl]-methyl-amino]-18-hydroxy-11-methyl-10,13-dioxo-9,12-diazatricyclo-[13.3.1.12,6]icosa-1(19),2(20),3,5,15,17-hexaene-8-carboxylic acid]	1 µM (≈ 1.04 µg/mL)	32 µM (≈ 33.2 µg/mL)	32 µM (≈ 33.2 µg/mL)	16 µM (≈ 16.6 µg/mL)	1 µM (≈ 1.04 µg/mL)	–
Cc1nc(-c2ccc(C(C)(C)C)cc2)nc(C)c1C(=O)N[C@@H](CCN)C(=O)N(C)[C@@H]1C(=O)N[C@@H](C)C(=O)N[C@H](C(=O)O)Cc2ccc(OCCN)c(c2)-c2cc1cc1[nH]c(=O)oc21 (racemic) [Example 649]	–	–	–	–	–	MIC [1, 10]: 1 µM (≈ 0.864 µg/mL); MIC [2, 11]: 64 µM (≈ 55.3 µg/mL); MIC [3, 12]: 64 µM (≈ 55.3 µg/mL); MIC [4, 13]: 2 µM (≈ 1.73 µg/mL)
C[C@@H]1NC(=O)[C@@H](N(C)C(=O)[C@H](CNS(N)(=O)=O)NC(=O)c2cnc(-c3ccc(C(C)(C)C)cc3)nc2N)c2cc(OC[C@H](O)CN)c(O)c(c2)-c2cc(ccc2OC[C@H](O)CN)C[C@@H](C(=O)O)NC1=O [Example 46, (8S,11S,14S)-14-[[(2S)-2-[[4-amino-2-(4-tert-butylphenyl)-pyrimidine-5-carbonyl]amino]-3-(sulfamoylamino)-propanoyl]-methyl-amino]-3,17-bis[(2R)-3-amino-2-hydroxy-propoxy]-18-hydroxy-11-methyl-10,13-dioxo-9,12-diazatricyclo-[13.3.1.12,6]icosa-1(18),2(20),3,5,15(19), 16-hexaene-8-carboxylic acid]	0.5 µM (≈ 0.497 µg/mL)	8 µM (≈ 7.95 µg/mL)	8 µM (≈ 7.95 µg/mL)	16 µM (≈ 15.9 µg/mL)	0.5 µM (≈ 0.497 µg/mL)	–
COc1c(OC[C@H](O)CN)cc2cc1-c1cc(ccc1OC[C@H](O)CN)C[C@@H](C(=O)O)NC(=O)[C@H](C)NC(=O)[C@H]2N(C)C(=O)[C@H](CNS(N)(=O)=O)NC(=O)c1c(C)nc(-c2ccc(C(C)(C)C)cc2)nc1N [Example 75, (8S,11S,14S)-14-[[(2S)-2-[[4-amino-2-(4-tert-butylphenyl)-6-methyl-pyrimidine-5-carbonyl]amino]-3-(sulfamoylamino)-propanoyl]-methyl-amino]-3,17-bis[(2R)-3-amino-2-hydroxy-propoxy]-18-methoxy-11-methyl-10,13-dioxo-9,12-diazatri-cyclo[13.3.1.12,6]icosa-1(18),2(20),3,5,15(19), 16-hexaene-8-carboxylic acid]	–	–	–	–	–	MIC [1, 14]: 0.75 µM (≈ 0.767 µg/mL); MIC ([2]; 50% v/v mouse serum in Mueller Hinton II cation adjusted Broth, 35° C., 22 hours, Table 4, read-out: A. baumanii 17978 Serum MIC): 16 µM (≈ 16.4 µg/mL); MIC ([2]; 50% v/v mouse serum in Mueller Hinton II cation adjusted Broth, 35° C., 22 hours, Table 5, read-out: Acinetobacter baumanii 17978 Serum MIC): 16 µM (≈ 16.4 µg/mL); P. aeruginosa 01 Serum MIC [3, 14]: 8 µM; MIC ([4]; 50% v/v mouse serum in Mueller Hinton II cation adjusted Broth, 35° C., 22 hours, Table 4, read-out: K. pneumoniae 700603 Serum MIC): 0.5 µM (≈ 0.511 µg/mL)
Cc1cc(-c2ccc(C(C)(C)C)cc2)nc(C)c1C(=O)N[C@@H](CCN)C(=O)N(C)[C@@H]1C(=O)N[C@@H](C)C(=O)N[C@H](C(=O)O)Cc2ccc(O)c(c2)-c2cc1ccc2OCCN (racemic) [Example 644]	–	–	–	–	–	MIC [1, 10]: 1.2 µM (≈ 0.986 µg/mL); MIC [2, 11]: 74 µM (≈ 60.8 µg/mL); MIC [3, 12]: 74 µM (≈ 60.8 µg/mL); MIC [4, 13]: 4.6 µM (≈ 3.78 µg/mL)
C[C@@H]1NC(=O)[C@@H](N(C)C(=O)[C@H](CNS(N)(=O)=O)NC(=O)c2cnn(-c3ccc(C(C)(C)C)cc3)c(=O)c2)c2cc(OC[C@H](O)CN)c(O)c(c2)-c2cc(ccc2OC[C@H](O)CN)C[C@@H](C(=O)O)NC1=O [Example 1, (8S,11S,14S)-18-hydroxy-11-methyl-14-[methyl-[(2S)-2-[[1-(4-tert-butylphenyl)-6-oxo-pyridazine-4-carbonyl]amino]-3-(sulfamoylamino)-propanoyl]amino]-10,13-dioxo-3,17-bis[(2R)-3-amino-2-hydroxy-propoxy]-9,12-diazatricyclo-[13.3.1.12,6]icosa-1(18),2(20),3,5,15(19), 16-hexaene-8-carboxylic acid]	–	–	–	–	–	MIC ([1]; Escherichia coli, ATCC25922, 22 h): 3 µM (≈ 2.99 µg/mL); MIC ([2]; Acinetobacter baumannii, ATCC17978, 22 h, read-out: A. baumanii 17978 Serum MIC): 24 µM (≈ 23.9 µg/mL); MIC ([2]; Acinetobacter baumannii, ATCC17978, 22 h, read-out: Acinetobacter baumanii 17978 Serum MIC): 24 µM (≈ 23.9 µg/mL); MIC ([3]; PA01, 22 h): 16 µM (≈ 15.9 µg/mL); MIC ([4]; Klebsiella pneumoniae, ATCC700603, 22 h, read-out: K pneumoniae 700603 Serum MIC): 1.5 µM (≈ 1.49 µg/mL)
Cc1nc(-c2cc3c(cc2O)C(C)(C)CC3)nc(N)c1C(=O)N[C@@H](CNS(N)(=O)=O)C(=O)N(C)[C@@H]1C(=O)N[C@@H](C)C(=O)N[C@H](C(=O)O)Cc2ccc(OC[C@H](O)CN)c(c2)-c2cc1cc(OC[C@H](O)CN)c2O [Example 57, (8S,11S,14S)-18-hydroxy-11-methyl-14-[methyl-[(2S)-2-[[4-amino-2-(6-hydroxy-1,1-dimethyl-indan-5-yl)-6-methyl-pyrimidine-5-carbonyl]amino]-3-(sulfamoylamino)-propanoyl]amino]-10,13-dioxo-3,17-bis[(2R)-3-amino-2-hydroxy-propoxy]-9,12-diazatricyclo-[13.3.1.12,6]icosa-1(18),2(20),3,5,15(19), 16-hexaene-8-carboxylic acid]	0.75 µM (≈ 0.777 µg/mL)	16 µM (≈ 16.6 µg/mL)	16 µM (≈ 16.6 µg/mL)	8 µM (≈ 8.29 µg/mL)	1 µM (≈ 1.04 µg/mL)	–
CCCCCOc1ccc(-c2nc(C)c(C(=O)N[C@@H](CCN)C(=O)N(C)[C@@H]3C(=O)N[C@@H](C)C(=O)N[C@H](C(=O)O)Cc4ccc(OCCN)c(c4)-c4cc3ccc4OCCN)c(C)n2)cc1 (racemic) [Example 638]	–	–	–	–	–	MIC [1, 10]: 0.75 µM (≈ 0.672 µg/mL); MIC [2, 11]: 64 µM (≈ 57.3 µg/mL); MIC [3, 12]: 64 µM (≈ 57.3 µg/mL); MIC [4, 13]: 1 µM (≈ 0.896 µg/mL)
COc1c(OC[C@H](O)CN)cc2cc1-c1cc(ccc1OC[C@H](O)CN)C[C@@H](C(=O)O)NC(=O)[C@H](C)NC(=O)[C@H]2N(C)C(=O)[C@H](CCN)NC(=O)c1cnc(-c2ccc(C3(C)CC3)cc2)nc1C [Example 74, (8S,11S,14S)-3,17-bis[(2R)-3-amino-2-hydroxy-propoxy]-14-[[(2S)-4-amino-2-[[4-methyl-2-[4-(1-methylcyclopropyl)-phenyl]pyrimidine-5-carbonyl]amino]-butanoyl]-methyl-amino]-18-methoxy-11-methyl-10,13-dioxo-9,12-diazatri-cyclo[13.3.1.12,6]icosa-1(18),2(20),3,5,15(19), 16-hexaene-8-carboxylic acid]	0.5 µM (≈ 0.47 µg/mL)	32 µM (≈ 30.1 µg/mL)	32 µM (≈ 30.1 µg/mL)	64 µM (≈ 60.2 µg/mL)	0.5 µM (≈ 0.47 µg/mL)	–
Cc1nc(-c2ccc(C(C)(C)C)cc2)ncc1C(=O)N[C@@H](CN)C(=O)N(C)[C@@H]1C(=O)N[C@@H](C)C(=O)N[C@H](C(=O)O)Cc2ccc(OC[C@H](O)CN)c(c2)-c2cc1cc(OC[C@H](O)CN)c2O [Example 31, (8S,11S,14S)-18-hydroxy-11-methyl-14-[methyl-[(2S)-3-amino-2-[[2-(4-tert-butylphenyl)-4-methyl-pyrimidine-5-carbonyl]amino]-propanoyl]amino]-10,13-dioxo-3,17-bis[(2R)-3-amino-2-hydroxy-propoxy]-9,12-diazatricyclo-[13.3.1.12,6]icosa-1(18),2(20),3,5,15(19), 16-hexaene-8-carboxylic acid]	1 µM (≈ 0.914 µg/mL)	32 µM (≈ 29.2 µg/mL)	32 µM (≈ 29.2 µg/mL)	48 µM (≈ 43.9 µg/mL)	0.75 µM (≈ 0.686 µg/mL)	–
